From PubChem BioAssay AID2060622 (Molecular Pharmacology Branch, DTP, NCI, 2025)

Tested on: 242566-281-R-J2-PDC complex spheroid viability
Assay: Anticancer human tumor 242566-281-R-J2-PDC patient-derived pancreatic carcinoma cell line growth inhibition [CLK]
Conditions: for IC50: curve of first compound; for viability, T/C: stronger effect = lower value; active = viability on the fitted dose curve at most 10% of control; inactive = the rest
How it was run: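 Patient-derived tumor cells grown as complex spheroids with HUVEC endothelial cells and mesenchymal stem cells, treated with drug combinations. Concentrations descend in half-log steps from near clinical Cmax, or from 10 microM if Cmax unknown.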

[1] = second compound 0.0316 µM, first compound 0.0316 µM
[2] = second compound 0.0316 µM, first compound 0.1 µM
[3] = second compound 0.0316 µM, first compound 0.316 µM
[4] = second compound 0.0316 µM, first compound 1 µM
[5] = second compound 0.0316 µM, first compound 3.16 µM
[6] = second compound 0.0316 µM, first compound 10 µM
[7] = second compound 0.1 µM, first compound 0.0316 µM
[8] = second compound 0.1 µM, first compound 0.1 µM
[9] = second compound 0.1 µM, first compound 0.316 µM
[10] = second compound 0.1 µM, first compound 1 µM
[11] = second compound 0.1 µM, first compound 3.16 µM
[12] = second compound 0.1 µM, first compound 10 µM
[13] = second compound 0.316 µM, first compound 0.0316 µM
[14] = second compound 0.316 µM, first compound 0.1 µM
[15] = second compound 0.316 µM, first compound 0.316 µM
[16] = second compound 0.316 µM, first compound 1 µM
[17] = second compound 0.316 µM, first compound 3.16 µM
[18] = second compound 0.316 µM, first compound 10 µM
[19] = second compound 1 µM, first compound 0.0316 µM
[20] = second compound 1 µM, first compound 0.1 µM
[21] = second compound 1 µM, first compound 0.316 µM
[22] = second compound 1 µM, first compound 1 µM
[23] = second compound 1 µM, first compound 3.16 µM
[24] = second compound 1 µM, first compound 10 µM
[25] = second compound 3.16 µM, first compound 0.0316 µM
[26] = second compound 3.16 µM, first compound 0.1 µM
[27] = second compound 3.16 µM, first compound 0.316 µM
[28] = second compound 3.16 µM, first compound 1 µM
[29] = second compound 3.16 µM, first compound 3.16 µM
[30] = second compound 3.16 µM, first compound 10 µM
[31] = second compound 10 µM, first compound 0.0316 µM
[32] = second compound 10 µM, first compound 0.1 µM
[33] = second compound 10 µM, first compound 0.316 µM
[34] = second compound 10 µM, first compound 1 µM
[35] = second compound 10 µM, first compound 3.16 µM
[36] = second compound 10 µM, first compound 10 µM
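Also: spheroids exposed to compounds for 7 days before readout.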
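For viability, T/C in this document: 100% = DMSO vehicle control wells.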

C#Cc1c(F)ccc2cc(O)cc(-c3ncc4c(N5CC6CCC(C5)N6)nc(OCC56CCCN5CC(F)C6)nc4c3F)c12 (stereo unspecified) + CN1CCN(c2cc(C(=O)Nc3cc4cc(-c5cnn(C)c5)ccc4cn3)ccn2)CC1
inactive: viability, T/C [1] 63.9% | viability, T/C [2] 47.5% | viability, T/C [3] 34% | viability, T/C [4] 29.4% | viability, T/C [5] 23.9% | viability, T/C [6] 17.1% | viability, T/C [7] 61.3% | viability, T/C [8] 42.9% | viability, T/C [9] 31.1% | viability, T/C [10] 19.9% | viability, T/C [11] 18.5% | viability, T/C [12] 15.5% | viability, T/C [13] 18.4% | viability, T/C [14] 13.2% | viability, T/C [15] 12.2%
active: viability, T/C [16] 10.6% | viability, T/C [17] 7.18% | viability, T/C [18] 3.44% | viability, T/C [19] 1.87% | viability, T/C [20] 1.39% | viability, T/C [21] 1.09% | viability, T/C [22] 1.22% | viability, T/C [23] 1.43% | viability, T/C [24] 1.26% | viability, T/C [25] 2.9% | viability, T/C [26] 2.24% | viability, T/C [27] 2.74% | viability, T/C [28] 2.35% | viability, T/C [29] 2.06% | viability, T/C [30] 1.51% | viability, T/C [31] 1.01% | viability, T/C [32] 0.76% | viability, T/C [33] 0.69% | viability, T/C [34] 0.78% | viability, T/C [35] 0.71% | viability, T/C [36] 0.34%
84.6 nM: IC50 (second compound 0.0316 µM)
< 31.6 nM: IC50 (second compound 0.316 µM) | IC50 (second compound 1 µM) | IC50 (second compound 3.16 µM) | IC50 (second compound 10 µM)
65.3 nM: IC50 (second compound 0.1 µM)

CC(=O)O[C@H]1C(=O)[C@@]2(C)[C@H]([C@H](OC(=O)c3ccccc3)[C@]3(O)C[C@H](OC(=O)[C@H](O)[C@@H](NC(=O)c4ccccc4)c4ccccc4)C(C)=C1C3(C)C)[C@]1(OC(C)=O)CO[C@@H]1C[C@@H]2O + CN1CCN(c2cc(C(=O)Nc3cc4cc(-c5cnn(C)c5)ccc4cn3)ccn2)CC1
< 31.6 nM: IC50 (second compound 0.0316 µM) | IC50 (second compound 0.1 µM) | IC50 (second compound 0.316 µM) | IC50 (second compound 1 µM) | IC50 (second compound 3.16 µM) | IC50 (second compound 10 µM)
active: viability, T/C [19] 5.85% | viability, T/C [20] 4.53% | viability, T/C [21] 5.01% | viability, T/C [22] 4.32% | viability, T/C [23] 5.32% | viability, T/C [24] 5.54% | viability, T/C [25] 7.09% | viability, T/C [26] 7.07% | viability, T/C [27] 7.24% | viability, T/C [28] 7.25% | viability, T/C [29] 7.67% | viability, T/C [30] 7.22% | viability, T/C [31] 1.45% | viability, T/C [32] 1.31% | viability, T/C [33] 1% | viability, T/C [34] 1.28% | viability, T/C [35] 1.57% | viability, T/C [36] 1.05%
inactive: viability, T/C [1] 37% | viability, T/C [2] 33.4% | viability, T/C [3] 28.9% | viability, T/C [4] 26.7% | viability, T/C [5] 32.2% | viability, T/C [6] 34.8% | viability, T/C [7] 43.7% | viability, T/C [8] 29.1% | viability, T/C [9] 27.7% | viability, T/C [10] 25.2% | viability, T/C [11] 29.1% | viability, T/C [12] 28.6% | viability, T/C [13] 15.9% | viability, T/C [14] 15.5% | viability, T/C [15] 15.1% | viability, T/C [16] 17.2% | viability, T/C [17] 25% | viability, T/C [18] 31.3%

COC1C=CCC(C)C(C)S(=O)(=O)NC(=O)c2ccc3c(c2)N(CC2CCC21)CC1(CCCc2cc(Cl)ccc21)CO3 (stereo unspecified) + CN1CCN(c2cc(C(=O)Nc3cc4cc(-c5cnn(C)c5)ccc4cn3)ccn2)CC1
3440 nM: IC50 (second compound 0.1 µM)
< 31.6 nM: IC50 (second compound 0.316 µM) | IC50 (second compound 1 µM) | IC50 (second compound 3.16 µM) | IC50 (second compound 10 µM)
inactive: viability, T/C [1] 93% | viability, T/C [2] 119% | viability, T/C [3] 101% | viability, T/C [4] 81.6% | viability, T/C [5] 78.9% | viability, T/C [6] 20.3% | viability, T/C [7] 93.2% | viability, T/C [8] 94.1% | viability, T/C [9] 87.8% | viability, T/C [10] 66.6% | viability, T/C [11] 56.6% | viability, T/C [12] 16.5% | viability, T/C [13] 37.5% | viability, T/C [14] 34.1% | viability, T/C [15] 28.7% | viability, T/C [16] 16.1% | viability, T/C [17] 12.8%
5300 nM: IC50 (second compound 0.0316 µM)
active: viability, T/C [18] 3.62% | viability, T/C [19] 4.66% | viability, T/C [20] 4.57% | viability, T/C [21] 3.7% | viability, T/C [22] 4.79% | viability, T/C [23] 3.13% | viability, T/C [24] 2.17% | viability, T/C [25] 7.61% | viability, T/C [26] 7.11% | viability, T/C [27] 6.63% | viability, T/C [28] 7.11% | viability, T/C [29] 6.71% | viability, T/C [30] 4.96% | viability, T/C [31] 1.98% | viability, T/C [32] 1.96% | viability, T/C [33] 1.79% | viability, T/C [34] 1.93% | viability, T/C [35] 1.82% | viability, T/C [36] 0.48%
